Experimental data taken from PMC11302339, “A series of pyrimidine-based antifungals with anti-mold activity disrupt ER function in Aspergillus fumigatus” (Microbiology Spectrum, 2024).
Converted amounts (≈) assume the structure as drawn. Where two headings read alike, the source gives them in different places. Marks after values point to notes of the source that are not given here.

Key:
A. terreus = test: MIC testing (CLSI broth dilution); format: cell-based, Aspergillus terreus
Protocol: (§1) MICs were determined using Clinical and Laboratory Standards Institute guidelines ([48], [49]). All yeasts were cultured overnight in 3 mL YPD at 30°C, then washed twice in sterile phosphate-buffered saline (PBS). Twofold serial dilutions of each drug were prepared in RMPI + MOPS, then 1 × 10^3 cells were added per well. For mold species, wells were inoculated with 1.25 × 10^3 conidia per well. Plates were incubated at 37°C for 24 (Candida spp. and S. cerevisiae), 48 (Aspergillus spp., M. circinelloides, S. apiospermum, and L. prolificans), or 72 (C. neoformans and F. oxysporum) hours. S. cerevisiae BY4743 MICs were tested in YPD due to nutritional requirements of this strain. Each assay was performed in technical duplicate in at least two independent experiments performed on different days.

C. albicans = test: MIC testing (CLSI broth dilution); format: cell-based, Candida albicans
Protocol: as §1

C. auris = test: MIC testing (CLSI broth dilution); format: cell-based, Candida auris; conditions: Candidozyma auris, CLSI conditions
Protocol: as §1

S. cerevisiae = test: MIC testing (broth dilution, YPD); format: cell-based; conditions: Saccharomyces cerevisiae, 24 h
Protocol: as §1

A. fumigatus biofilms = test: A. fumigatus hyphal (biofilm) activity, resazurin; format: cell-based, Aspergillus fumigatus; conditions: conidia germinated 14 hours
Protocol: To determine antifungal activity against A. fumigatus hyphae, a 96-well plate was inoculated with 1 × 10^3 conidia per well in 100 µL RPMI + MOPS with the edge wells filled with 200 µL sterile water to minimize edge effects. Plates were incubated at 37°C for 14 hours. A twofold dilution series of 1 or 7 was prepared in RPMI + MOPS at 2× concentration with 0.002% resazurin, then 100 µL of the drug was added to wells, and plates were incubated for an additional 24 hours. Fluorescence was measured with an excitation wavelength of 570 nm and an emission wavelength of 615 nm. Data are representative of two independent experiments performed in biological triplicate.

[1] = test system: A. fumigatus CEA10 hyphae; test: Propidium iodide viability staining of treated hyphae; format: cell-based, Aspergillus fumigatus
Protocol: For PI staining of 1-treated hyphae, 0.5 × 10^3conidia/mL in 100 µL RPMI + MOPS were inoculated into chambers of an eight-well chamber slide and incubated at 37°C for 14 hours. 100 µL of media containing a 2× concentration of 1 or an equivalent amount of DMSO was added to each chamber, and slides were incubated for an additional 24 hours. Media were removed from chambers, replaced with PBS + 40 µM propidium iodide (Invitrogen, Cat # P3566), then slides were incubated at room temperature for 20 min in the dark. Images were acquired on a Nikon epifluorescence microscope with a Nikon DS-Fi1 camera and Nikon Elements image acquisition and analysis software. Images were processed equally with linear brightness and contrast adjustments in Photoshop, only to increase ease of viewing. Representative images of two independent experiments are shown with two biological replicates each.

C. neoformans H99 = test: ER stress interactions on YPD plates; format: cell-based, Cryptococcus neoformans; conditions: 4 µg/mL 1 on YPD
Protocol: To determine interactions of 1 with ER stress in Cryptococcus neoformans, an overnight culture of H99 was diluted to 1 × 10^6 CFU/mL, then three 10-fold dilutions were prepared. Three-microliter spots of each cell dilution were plated in triplicate on YPD containing DMSO or 4 µg/mL 1 in combination with DTT, brefeldin A, or tunicamycin. Plates were incubated at 37°C for 72 hours. Images are representative of two independent experiments performed in biological triplicate.

[2] = Protein binding analysis, plasma; format: in vitro ADME; conditions: mouse, mouse plasma diluted 1:10 with PBS
C. neoformans = test: MIC testing in the presence of 10% serum; format: cell-based
Protocol: as §1

[3] = Pharmacokinetics in mice (serum/plasma and brain); format: in vivo, CD-1 mice; conditions: single 10 mg/kg intraperitoneal; for Cmax / half-life: female, CD-1, mouse, ip, CD1 mice; for half-life: read-out: half-life (T1/2)
Protocol: Twenty-one female CD-1 mice were dosed intraperitoneally with 10 mg/kg 1. Whole blood was collected in a syringe coated with ACD. Plasma was processed from whole blood by centrifugation at 10,000 rpm for 10 min. Brain tissue was harvested and gently washed with 1× PBS to remove residual circulating blood. The tissue was weighed and snap frozen in liquid nitrogen.
For the standards and quality controls, 98.0 and 98.8 µL of blank vendor plasma were added to a microfuge tube and spiked with 2.0 and 1.2 µL of initial standard. Standards, quality controls, and samples of 100 µL were then precipitated with 200 µL of methanol containing 0.15% formic acid and […]. The samples were vortexed 15 s, incubated at room temperature for 10 min, and centrifuged at 13,200 rpm twice in a standard microcentrifuge. The supernatant was then analyzed by LC-MS/MS. The vendor supplied the plasma used in standards and quality controls (QCs; lot # MSE460968, ACD anti-coagulant; Bioreclamation, LLC).
Brain tissues were homogenized in 3× volume of PBS. For the standards and quality control samples, 98.0 and 98.8 µL of pooled blank brain were added to a microfuge tube and spiked with 2.0 or 1.2 µL of initial standard. Standards, quality control samples of 100 µL, were then precipitated with 200 µL of methanol containing 0.15% formic acid and 12.5 ng/mL IS (final concentrations). The samples were vortexed for 15 s, incubated at room temperature for 10 min, and centrifuged at 13,200 rpm twice in a standard microcentrifuge. The supernatant was then analyzed by LC-MS/MS.

## OC1CC(c2cc(N3CCC(CCc4ccccc4)CC3)ncn2)C1 (stereo not shown) [compound 1]
A. terreus; Aspergillus terreus, strain S010, clinical isolate, CLSI conditions
  MIC: 8 µg/mL (≈ 23.7 µM)
A. terreus; strain S023, clinical isolate, no clear well, growth reduced by ≥50% at MEC
  Minimum effective concentration (MEC): 16^b µg/mL
C. albicans; Candida albicans, strain SC5314, CLSI conditions, 24 h, read-out: MIC
  MIC: 64 µg/mL (≈ 190 µM)
C. albicans; Candida albicans, strain not named, read-out: MIC
  MIC: 64 µg/mL (≈ 190 µM)
C. albicans; strain TWO7241, azole-resistant clinical isolate, CLSI conditions
  MIC: 64 µg/mL (≈ 190 µM)
C. albicans; strain TWO7243, azole-resistant clinical isolate, CLSI conditions
  MIC: 64 µg/mL (≈ 190 µM)
C. auris; strain 0390
  MIC: > 128 µg/mL
C. auris; strain 3081, drug-resistant clinical isolate
  MIC: 8 µg/mL (≈ 23.7 µM)
S. cerevisiae
  MIC: 8 µg/mL (≈ 23.7 µM)
A. fumigatus biofilms; Aspergillus fumigatus, then treated 24 hours, read-out: IC50 of hyphal growth
  IC50: 1.66 µg/mL (≈ 4.92 µM)
A. fumigatus biofilms; escalating doses 24 hours
  inhibition of hyphal growth: dose-dependent inhibition of hyphal growth
[1]; 8 µg/mL for 24 hours after 14 hours germination
  propidium iodide staining of hyphae: did not show increased staining relative to vehicle-treated controls
[1]; 32 µg/mL for 24 hours after 14 hours germination
  propidium iodide staining of hyphae: stained brightly
[1]; at concentrations 2× the MIC
  type of activity against biofilms: fungicidal
C. neoformans H99; 0.125 µg/mL tunicamycin
  interaction with tunicamycin: antagonistic
C. neoformans H99; 0.25 µg/mL tunicamycin
  interaction with tunicamycin: additive
C. neoformans H99; 37°C, 72 hours
  interaction with DTT: synergistic
  interaction with brefeldin A: synergistic
[2]; read-out: Corrected % Protein binding (converted)
  fraction unbound at 6 h, 5 µM: 0.0285
[2]; uncorrected (plasma diluted 1:10), read-out: % Protein binding (converted)
  fraction unbound at 6 h, 5 µM: 0.227
C. neoformans
  increase in MIC in the presence of 10% serum: 2 fold
[3]; brain tissue
  time of Cmax post-administration: 10 min
  Cmax: 2000 ng/g
  half-life: 4.92 h
[3]; serum/plasma
  Cmax: 491 ng/mL
  half-life: 0.383 h
[3]; serum
  time of Cmax post-administration: 10 min
[3]; mice
  blood-brain barrier penetration: penetrated the blood-brain barrier
